Measurements published in publication PMC6151599, “Intestinal Absorption of Triterpenoids and Flavonoids from Glycyrrhizae radix et rhizoma in the Human Caco-2 Monolayer Cell Model” (Molecules : A Journal of Synthetic Chemistry and Natural …, 2017).
“Also recorded” adds a separate entry of the source. Where two headings read alike, the source gives them in different places.

Key:
Caco-2 cell monolayer [1] = test: Bidirectional transport (Papp) across Caco-2 cell monolayer; assay type: in vitro ADME, human; conditions: for Absorption designation: from Caco-2 Papp compared with propranolol and atenolol; for Time course of bilateral permeation: 0–180 min at 50 μM; for Transport mechanism / Efflux Ratio (Papp BL→AP to Papp AP→BL): Caco-2 monolayer; for Efflux Ratio (Papp BL→AP to Papp AP→BL): 90 min; for Concentration dependence of rate of membrane permeation: at 90 min within test range of concentration
Procedure: (§1) The Caco-2 cell monolayer permeability was carried out according to the previously reported method. Briefly, the Caco-2 cells were maintained in DMEM containing 10% FBS, 1% NEAA, 100 units/mL of penicillin, and 100 µg/mL of streptomycin, in a constant humidity atmosphere of 5% CO2 and 95% air at 37 °C. For confluence and differentiation, cells were seeded at a density of 1 × 10^5 cells/cm^2 into 12-well Transwell plates (insert diameter 12 mm, pore size 3.0 μm, membrane growth area 1.12 cm^2, Costar® #3402) and were allowed to grow for 21 days before the permeation experiment. On day 21, the monolayers with TEER values > 500 Ω·cm^2 were qualified for the transport experiment. The transport study was initiated by the careful removal of the culture medium from AP and BL sides of the inserts. Caco-2 monolayers were rinsed twice with pre-warmed HBSS and were incubated by pre-warmed HBSS for 30 min at 37 °C. […] The assayed solutions (50 µM) were added to the AP side (0.5 mL, for absorption transport) or BL side (1.5 mL, for efflux transport) of the inserts, while the receiving chamber contained the corresponding volume of HBSS. Incubation was performed at 37 °C for 90 min, with shaking at 50 rpm. Samples were collected from the inserts and lyophilized. The dried sample was then sonicated with the appropriate volume of MeOH, followed by centrifugation at 15,000× g for 10 min. The supernatant was filtered through a 0.45 μm filter and injected into HPLC system for quantitative analysis.
(§2) The AP to BL or BL to AP permeability coefficient (Papp) value of each compound was calculated based on the following equation:Papp = (dQ/dt) × (1/A) × (1/C0) (cm/s)(1) where dQ/dt is the rate of the appearance of the test compound on the receiver compartment (μmol/s), C0 is the initial test compound concentration on the donor compartment (μmol/mL), and A is the surface area of Caco-2 monolayer (cm^2).
(§3) While shaking the samples (37 °C, 50 rpm), 1.3 mL aliquots were taken from BL side or 0.45 mL aliquots were taken from AP side at 30 min intervals from […].
(§4) After shaking the samples (37 °C, 50 rpm) in a shaking water bath for 90 min, aliquots were collected as described above.

[2] = as above; assay type: in vitro ADME, human; conditions: human; for Papp at 90 min, 50 µM / Papp A→B at 90 min, 50 µM / Papp B→A at 90 min, 50 µM: Caco-2 monolayer; for Papp at 90 min, 50 µM: both directions; for efflux ratio at 90 min, 50 µM: Caco-2, Caco-2 monolayer, read-out: Efflux Ratio (Papp BL→AP to Papp AP→BL); for Papp A→B at 90 min, 50 µM / Papp B→A at 90 min, 50 µM: incubation up to 90 min, n = 3
Procedure: as §1, §2, §3, §4

[3] = Intracellular accumulation and total recovery (mass balance) at the end of transport; assay type: in vitro ADME, human; conditions: human, Caco-2, end of transport, n = 3
Procedure: (§5) To measure the amount of intracellular accumulation, the Caco-2 cells were rinsed three times with ice-cold HBSS at the end of transport experiments. After three freeze (−20 °C)-thaw (room temperature) cycles, the lysed Caco-2 cells were lyophilized. The dried cells were sonicated in 0.2 mL of 70% aqueous MeOH for 20 min and then centrifuged at 15,000× g for 10 min. The supernatant was filtered through a 0.45 μm filter and a 10 μL aliquot was injected into the HPLC system for analysis. To check the mass balance, the recoveries of the assayed compounds were measured at both sides of the insert and intracellular accumulation of the Caco-2 cells.

Caco-2 cell monolayer [4] = test: as above; assay type: in vitro ADME, human
Procedure: as §5

Caco-2 cell monolayer [5] = conditions: cited from earlier work; for Absorption designation: from previously reported Caco-2 Papp
[6] = Bidirectional transport (Papp) across Caco-2 cell monolayer; assay type: in vitro ADME; conditions: human, ratio of previously reported Papp values (refs 35, 36), read-out: Efflux Ratio (Papp BL→AP to Papp AP→BL)
[7] = end of transport, n = 3, –: not detected

Compound	Papp at 90 min, 50 µM [2] [×10⁻⁶ cm/s]	recovery ([3]; read-out: Total recovery AP→BL) [%]	recovery ([3]; read-out: Total recovery BL→AP) [%]	efflux ratio at 90 min, 50 µM [2]	Papp A→B at 90 min, 50 µM [2] [×10⁻⁶ cm/s]	Papp B→A at 90 min, 50 µM [2] [×10⁻⁶ cm/s]	also measured
CC1(C)[C@@H](O[C@H]2O[C@H](C(=O)O)[C@@H](O)[C@H](O)[C@H]2O[C@@H]2O[C@H](C(=O)O)[C@@H](O)[C@H](O)[C@H]2O)CC[C@]2(C)[C@H]3C(=O)C=C4[C@@H]5C[C@@](C)(C(=O)O)CC[C@]5(C)CC[C@@]4(C)[C@]3(C)CC[C@@H]12 [Compound 1, glycyrrhizin]	< 0.1	–	–	–	–	–	Detection of compound in the receiving side (Caco-2 cell monolayer [1]; after incubation for 90 min, AP→BL and BL→AP): not detected; also recorded: below the lower limit of detection; Absorption designation (Caco-2 cell monolayer [1]): very poorly absorbed; also recorded: poorly absorbed
CC1(C)[C@@H](O[C@@H]2O[C@H](C(=O)O)[C@@H](O)[C@H](O)[C@H]2O)CC[C@]2(C)[C@H]3C(=O)C=C4[C@@H]5C[C@@](C)(C(=O)O)CC[C@]5(C)CC[C@@]4(C)[C@]3(C)CC[C@@H]12 [Compound 2, glycyrrhetic acid-3-O-mono-β-D-glucuronide]	~1	97.04 ± 0.36	91.6 ± 1.27	1.06 to 1.11	1.55 ± 0.09	1.65 ± 0.95	Time course of bilateral permeation (Caco-2 cell monolayer [1]): increased approximately linearly; Transport mechanism (Caco-2 cell monolayer [1]): passive diffusion; Efflux Ratio (Papp BL→AP to Papp AP→BL) (Caco-2 cell monolayer [1]): 1.06; Concentration dependence of rate of membrane permeation (Caco-2 cell monolayer [1]): increased approximately linearly; Absorption designation (Caco-2 cell monolayer [1]): moderately absorbed
CC1(C)[C@@H](O)CC[C@]2(C)[C@H]3C(=O)C=C4[C@@H]5C[C@@](C)(C(=O)O)CC[C@]5(C)CC[C@@]4(C)[C@]3(C)CC[C@@H]12 [Compound 3, glycyrrhetinic acid]	> 10	85.1 ± 2.33	98.24 ± 0.59	1.06 to 1.11	12.6 ± 0.4	14 ± 1.3	CA (cell accumulation) AP→BL (Caco-2 cell monolayer [4]; [7]): 0.25 ± 0.01%; Time course of bilateral permeation (Caco-2 cell monolayer [1]): increased approximately linearly; Transport mechanism (Caco-2 cell monolayer [1]): passive diffusion; Efflux Ratio (Papp BL→AP to Papp AP→BL) (Caco-2 cell monolayer [1]): 1.11; Concentration dependence of rate of membrane permeation (Caco-2 cell monolayer [1]): increased approximately linearly
C=CC(C)(C)c1cc(/C=C/C(=O)c2ccc(O)cc2)c(OC)cc1O [Compound 4, licochalcone A]	–	81.88 ± 0.67	90.4 ± 2.74	1.06	1.68 ± 0.13	1.78 ± 0.03	Cell accumulation / intracellular uptake (in words) (Caco-2 cell monolayer [4]; all bidirectional transport): higher intracellular uptake; also recorded: higher accumulation; Total recovery AP→BL (Caco-2 cell monolayer [4]; end of transport, n = 3): relatively lower; CA (cell accumulation) AP→BL (Caco-2 cell monolayer [4]; [7]): 50.52 ± 1.88%; CA (cell accumulation) BL→AP (Caco-2 cell monolayer [4]; [7]): 42.56 ± 2.36%; Absorption designation (Caco-2 cell monolayer [1]): moderately absorbed
COc1c(/C=C/C(=O)c2ccc(O)cc2)ccc(O)c1O [Compound 5, licochalcone B]	–	96.2 ± 0.19	94.5 ± 2.89	1.22	24.7 ± 2.8	30.2 ± 2.4	–
COc1c(/C=C/C(=O)c2ccc(O)cc2)ccc(O)c1CC=C(C)C [Compound 6, licochalcone C]	–	97.5 ± 1.26	96.1 ± 4.55	1.17	22.5 ± 1	26.4 ± 1.3	–
COc1cc(O)ccc1/C=C/C(=O)c1ccc(O)cc1 [Compound 7, echinatin]	–	96.9 ± 2.67	97.7 ± 3.29	1.15	20.7 ± 1	23.8 ± 0.3	–
O=C1C[C@@H](c2ccc(O)cc2)Oc2cc(O)ccc21 [Compound 9, liquiritigenin]	~10	87 ± 2.78	94.8 ± 4.29	0.88	17.8 ± 0.6	15.7 ± 0.3	Time course of bilateral permeation (Caco-2 cell monolayer [1]): increased approximately linearly; Concentration dependence of rate of membrane permeation (Caco-2 cell monolayer [1]): increased approximately linearly
O=C(/C=C/c1ccc(O)cc1)c1ccc(O)cc1O [Compound 11, isoliquiritigenin]	–	–	–	–	–	–	Papp BL→AP (Caco-2 cell monolayer [5]; Caco-2 monolayer): 9.35 ± 0.43 ×10^−6 cm/s
O=C(/C=C/c1ccc(O[C@@H]2O[C@H](CO)[C@@H](O)[C@H](O)[C@H]2O)cc1)c1ccc(O)cc1O [Compound 12, isoliquiritin]	–	–	–	–	–	–	Papp AP→BL (Caco-2 cell monolayer [5]; Caco-2 monolayer): 0.87 ± 0.02 ×10^−6 cm/s; Papp BL→AP (Caco-2 cell monolayer [5]; Caco-2 monolayer): 0.77 ± 0.07 ×10^−6 cm/s; Papp from AP to BL direction (Caco-2 cell monolayer [5]; Caco-2 monolayer): (8.69 ± 0.15) × 10^−7 cm/s; Papp from BL to AP direction (Caco-2 cell monolayer [5]; Caco-2 monolayer): (7.68 ± 0.66) × 10^−7 cm/s; Papp values (bidirectional) (Caco-2 cell monolayer [5]; Caco-2 monolayer): ≤ 0.1 ×10⁻⁶ cm/s; Absorption designation (Caco-2 cell monolayer [5]): poorly absorbed; efflux ratio [6]: 0.89
O=C1C[C@@H](c2ccc(O[C@@H]3O[C@H](CO)[C@@H](O)[C@H](O)[C@H]3O)cc2)Oc2cc(O)ccc21 [Compound 13, liquiritin]	–	–	–	–	–	–	Papp AP→BL (Caco-2 cell monolayer [5]; Caco-2 monolayer): 0.54 ± 0.02 ×10^−6 cm/s; Papp BL→AP (Caco-2 cell monolayer [5]; Caco-2 monolayer): 0.53 ± 0.03 ×10^−6 cm/s; Papp from BL to AP direction (Caco-2 cell monolayer [5]; Caco-2 monolayer): (5.32 ± 0.31) × 10^−7 cm/s; Papp values (bidirectional) (Caco-2 cell monolayer [5]; Caco-2 monolayer): ~0.1 ×10⁻⁶ cm/s; Absorption designation (Caco-2 cell monolayer [5]): poorly absorbed; efflux ratio [6]: 0.98
CC(C)NCC(O)COc1cccc2ccccc12 (stereo not shown) [propranolol, reference compound]	–	–	–	–	–	–	Papp ([2]; Caco-2, read-out: Papp of transport markers): 25.1 ×10⁻⁶ cm/s
